Values of other authors in US20110287097A1, “PHARMACEUTICAL COMPOSITIONS COMPRISING ROPINIROLE” (DR. REDDY'S LABORATORIES, INC., priority 2007, published 2011).

CCCN(CCC)CCc1cccc2c1CC(=O)N2 [Ropinirole, 4-[2-(dipropylamino)ethyl]-1,3-dihydro-2H-indol-2-one]
time to peak plasma concentration (after administration of an immediate release tablet): 1 to 2 h
absolute systemic bioavailability (in vivo): 55%
mean plasma elimination half-life (in vivo): approximately 6 hours
